Measured values: BindingDB's records for patent US12304898 (Primegene (Beijing), 2025)

Columns and labels:
[1] = molecular target: Vascular endothelial growth factor receptor 2 (Homo sapiens, UniProt P35968); test: Inhibitory Activities of the Compounds on VEGFR2
Description: Detect compounds on VEGFR2 (KDR) by mobility shift assay. The initial test concentration of a compound was 1000 nM, 3 times dilution, 10 concentrations, and detection in duplicate. Nintedanib (Selleckchem, Cat. S1010) was used as the positive control compound. The operation method was briefly described as follows: kinase VEGFR2 (Carna, Cat. 08-191) at the final concentration of 0.5 nM and the test compound were mixed in the Optiplate-384F well plate and incubated for 10 minutes at room temperature. Then, ATP at a final concentration of 95 μM and 3 μM Kinase substrate 22 (Gill Biochemical (glbiochem), Cat. 112393) were added. After mixing, react at room temperature for 30 minutes. Add stop detection solution to terminate the reaction and read the conversion rate with Caliper EZ ReaderlI.

Histone deacetylase 6 = molecular target: T1, Histone deacetylase 6 (Homo sapiens, UniProt Q9UBN7); test: Inhibitory Activity of the Compounds on HDAC6
T1 sequence (Q9UBN7 whole entry): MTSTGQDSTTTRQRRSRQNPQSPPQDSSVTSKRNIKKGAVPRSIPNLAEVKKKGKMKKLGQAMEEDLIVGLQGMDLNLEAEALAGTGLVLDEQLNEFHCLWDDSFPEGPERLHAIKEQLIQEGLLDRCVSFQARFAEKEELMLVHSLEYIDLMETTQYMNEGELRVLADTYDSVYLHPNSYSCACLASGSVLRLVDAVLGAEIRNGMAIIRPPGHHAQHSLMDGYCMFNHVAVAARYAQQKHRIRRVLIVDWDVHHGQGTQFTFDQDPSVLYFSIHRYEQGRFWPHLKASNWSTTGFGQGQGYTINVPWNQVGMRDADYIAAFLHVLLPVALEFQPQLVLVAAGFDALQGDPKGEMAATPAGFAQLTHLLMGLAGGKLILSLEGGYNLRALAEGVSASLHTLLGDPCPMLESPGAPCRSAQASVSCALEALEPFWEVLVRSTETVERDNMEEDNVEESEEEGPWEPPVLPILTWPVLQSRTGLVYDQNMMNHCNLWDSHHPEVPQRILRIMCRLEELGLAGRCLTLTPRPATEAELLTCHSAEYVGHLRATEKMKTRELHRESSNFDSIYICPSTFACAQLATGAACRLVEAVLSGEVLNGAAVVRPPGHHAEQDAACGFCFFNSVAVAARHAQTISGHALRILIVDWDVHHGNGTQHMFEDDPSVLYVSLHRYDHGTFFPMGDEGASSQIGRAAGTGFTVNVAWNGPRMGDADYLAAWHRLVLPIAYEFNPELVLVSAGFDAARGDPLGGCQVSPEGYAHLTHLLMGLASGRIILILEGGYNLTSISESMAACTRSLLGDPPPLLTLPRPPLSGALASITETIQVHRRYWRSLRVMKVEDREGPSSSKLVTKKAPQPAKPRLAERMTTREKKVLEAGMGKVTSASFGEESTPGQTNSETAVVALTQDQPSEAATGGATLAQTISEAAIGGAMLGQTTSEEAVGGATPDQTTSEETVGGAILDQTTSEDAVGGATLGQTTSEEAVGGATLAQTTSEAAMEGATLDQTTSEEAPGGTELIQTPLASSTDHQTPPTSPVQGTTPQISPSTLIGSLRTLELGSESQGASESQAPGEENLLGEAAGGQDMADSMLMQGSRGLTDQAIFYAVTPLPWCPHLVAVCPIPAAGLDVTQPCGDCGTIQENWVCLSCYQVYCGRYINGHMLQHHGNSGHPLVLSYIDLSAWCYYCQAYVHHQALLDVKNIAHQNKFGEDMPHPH
Description: Prepare a 10 mM stock solution of a compound with DMSO. Take 10 μl of stock solution and dilute with 90 μl DMSO to become a 1 mM working solution. […] Add 30 μl trypsin/SAHA mixture (20 mM Hepes pH 8.0, 100 mM NaCl, 10 mM SAHA, 0.01 mg/ml trypsin), incubate at 23° C. for 60 minutes to terminate the reaction. Finally, read fluorescence data by Envision (390 nm excitation, 460 nm emission). […] Finally, analyze the data by XLfit5 software and calculate the IC50 value of the compound. Vorinostat (SAHA) was a positive reference compound.

Sequence of Vascular endothelial growth factor receptor 2 (P35968 whole entry): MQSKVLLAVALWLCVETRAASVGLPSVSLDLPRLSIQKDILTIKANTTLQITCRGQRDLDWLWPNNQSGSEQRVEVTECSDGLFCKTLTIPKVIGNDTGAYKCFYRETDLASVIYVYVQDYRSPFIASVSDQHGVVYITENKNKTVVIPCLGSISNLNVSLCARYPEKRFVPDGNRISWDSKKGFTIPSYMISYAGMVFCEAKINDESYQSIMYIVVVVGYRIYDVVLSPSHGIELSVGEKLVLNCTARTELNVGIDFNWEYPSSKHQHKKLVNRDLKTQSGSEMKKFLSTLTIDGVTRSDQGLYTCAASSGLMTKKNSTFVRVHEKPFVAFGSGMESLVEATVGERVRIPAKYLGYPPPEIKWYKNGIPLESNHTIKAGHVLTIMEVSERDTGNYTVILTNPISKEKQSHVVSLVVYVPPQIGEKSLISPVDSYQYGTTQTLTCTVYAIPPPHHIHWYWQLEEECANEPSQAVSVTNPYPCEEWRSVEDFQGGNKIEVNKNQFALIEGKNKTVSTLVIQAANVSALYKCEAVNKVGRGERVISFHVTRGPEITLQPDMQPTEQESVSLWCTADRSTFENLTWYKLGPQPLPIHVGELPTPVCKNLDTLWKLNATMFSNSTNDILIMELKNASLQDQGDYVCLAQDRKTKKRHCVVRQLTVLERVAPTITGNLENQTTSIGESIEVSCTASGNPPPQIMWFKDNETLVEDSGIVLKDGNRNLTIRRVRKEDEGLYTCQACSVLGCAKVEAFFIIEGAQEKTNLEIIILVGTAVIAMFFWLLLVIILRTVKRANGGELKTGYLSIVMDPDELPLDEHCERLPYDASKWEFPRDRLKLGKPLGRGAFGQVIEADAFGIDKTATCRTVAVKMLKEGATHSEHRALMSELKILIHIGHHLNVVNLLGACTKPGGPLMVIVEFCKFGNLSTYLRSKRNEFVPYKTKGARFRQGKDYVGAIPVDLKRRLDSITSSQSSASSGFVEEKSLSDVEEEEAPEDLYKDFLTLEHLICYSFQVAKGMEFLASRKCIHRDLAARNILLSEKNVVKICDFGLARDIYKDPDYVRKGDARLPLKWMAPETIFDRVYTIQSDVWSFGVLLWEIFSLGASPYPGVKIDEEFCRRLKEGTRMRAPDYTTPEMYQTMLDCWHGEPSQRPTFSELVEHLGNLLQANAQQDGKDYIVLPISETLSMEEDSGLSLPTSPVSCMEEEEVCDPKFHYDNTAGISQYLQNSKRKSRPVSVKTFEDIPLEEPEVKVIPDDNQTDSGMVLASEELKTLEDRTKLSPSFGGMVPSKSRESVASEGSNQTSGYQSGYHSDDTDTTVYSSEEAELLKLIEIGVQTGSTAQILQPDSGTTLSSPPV

Compound	IC50 [1] [nM]	IC50 (Histone deacetylase 6) [nM]
COc1cc2c(Oc3ccc(NC(=O)C4(C(=O)Nc5ccc(F)cc5)CC4)cc3F)ccnc2cc1OCCCN(C)CCCS [US12304898, Example 53]	4.7	
COc1cc2c(Oc3ccc(NC(=O)C4(C(=O)NC5CC5)CC4)cc3F)ccnc2cc1OCCCCCNC(=O)CSC(C)=O [US12304898, Example 67]	30	
COc1cc2c(Oc3ccc(NC(=O)C4(C(=O)Nc5ccc(F)cc5)CC4)cc3F)ccnc2cc1OCCCCNC(=O)CSC(C)=O [US12304898, Example 61]	12	29.9
COc1cc2c(Oc3ccc(NC(=O)C4(C(=O)Nc5ccc(F)cc5)CC4)cc3F)ccnc2cc1OCCCNCCCS [US12304898, Example 51]	7.7	
CC(=O)SCC(=O)NCCCCCOc1cc2nccc(Oc3ccc(NC(=O)C4(C(=O)NC5CC5)CC4)cc3F)c2cc1C(N)=O [US12304898, Example 73]	45	
COc1cc2c(Oc3ccc(NC(=O)C4(C(=O)Nc5ccc(F)cc5)CC4)cc3F)ccnc2cc1OCCCNCCCSC(C)=O [US12304898, Example 50]	6.6	
COc1cc2c(Oc3ccc(NC(=O)C4(C(=O)Nc5ccc(F)cc5)CC4)cc3F)ccnc2cc1OCCCN(C)CCCSC(C)=O [US12304898, Example 52]	3.2	
COc1cc2c(Oc3ccc(NC(=O)C4(C(=O)Nc5ccc(F)cc5)CC4)cc3F)ccnc2cc1OCCCCCNC(=O)CS [US12304898, Example 58]	25	15.4
COc1cc2c(Oc3ccc(NC(=O)C4(C(=O)Nc5ccc(F)cc5)CC4)cc3F)ccnc2cc1OCCCCCNC(=O)CSC(C)=O [US12304898, Example 57]	20	48.3
COc1cc2c(Oc3ccc(NC(=O)C4(C(=O)Nc5ccc(F)cc5)CC4)cc3F)ccnc2cc1OCCCCCCNC(=O)CSC(C)=O [US12304898, Example 63]	36	97.8
